From PubChem BioAssay AID2823 (Broad Institute, 2010)
The source made the active and inactive calls. No rule for the calls is given here.

Target: RanGTP-importin-beta complex (human Ran / KPNB1)
Assay: disruptors of RanGTP/KPNB1 binding – biochemical, FRET, CFP/YFP, cell-free homogeneous, confirmation (AID 2823)
Conditions: CFP-Ran/YFP-importin-beta FRET ratio

Compound: Cc1cc(C)c2c(c1)/C(=c1/sc3n(c1=O)CN(c1ccccc1)CN=3)C(=O)N2
- IC50: > 50 µM (inactive)

Compound: Cc1ccc2cc(C#N)c(N3CCCC3)nc2c1C
- IC50: > 50 µM (inactive)

Compound: CC(=O)N1CN2CN(C(C)=O)CC(C(=O)c3ccccc3)(C2)C1
- IC50: > 50 µM (inactive)

Compound: Cn1cnnc1SCC(=O)c1cc2ccccc2oc1=O
- IC50: > 50 µM (inactive)

Compound: CCN(CC)Cc1c(O)c(Cl)cc2c3c(c(=O)oc12)CCCC3
- IC50: 20.6 µM

Compound: Oc1cccc(/C=N/Nc2cc(N3CCCC3)nc(N3CCCC3)n2)c1
- IC50: > 50 µM (inactive)

Compound: Oc1c(C=Nc2ccccc2)sc(=S)n1Cc1ccccc1
- IC50: > 50 µM (inactive)

Compound: Cc1ccc(N2NC(=O)/C(=C\c3cc4c(cc3[N+](=O)[O-])OCO4)C2=O)cc1C
- IC50: > 50 µM (inactive)

Compound: COc1ccc(C2c3c(ncn(Cc4ccco4)c3=N)Oc3ccc4ccccc4c32)cc1 (configuration not stated)
- IC50: > 50 µM (inactive)

Compound: Cc1nn(-c2ccccc2)c2sc(C(=O)NC3CCCCC3)cc12
- IC50: > 50 µM (inactive)

Compound: CCOC(=O)c1sc(N/N=C/c2cc(Br)c(O)c(OC)c2)nc1C
- IC50: > 50 µM (inactive)

Compound: CC1=NC(Nc2nc(C)c3ccccc3n2)=NC(C)(C)C1
- IC50: > 50 µM (inactive)

Compound: CCN1C(=S)SC(=O)C1=C1C=C(C)N(Cc2ccco2)C(C)=C1
- IC50: 11.1 µM

Compound: c1c2c(cc3sc(N4CCOCC4)nc13)OCCO2
- IC50: > 50 µM (inactive)

Compound: Cc1ccccc1NC(=O)/C(C#N)=C\c1cn(CC(=O)O)c2ccccc12
- IC50: 47.6 µM

Compound: CN(C)c1oc(-c2cccs2)nc1C#N
- IC50: > 50 µM (inactive)

Compound: CCCC(C)c1nnc(NC(=O)C2CC(=O)N(c3ccc(OCC)cc3)C2)s1 (configuration not stated)
- IC50: > 50 µM (inactive)

Compound: Cc1ccc(Cn2ccc(NC(=O)c3noc4c3CCc3ccccc3-4)n2)cc1
- IC50: > 50 µM (inactive)

Compound: COCCNC(=O)c1cnn2c(C(F)F)cc(-c3ccc(C)cc3)nc12
- IC50: 37.8 µM

Compound: CC(C)c1cc(N2CCN(C(=O)c3ccco3)CC2)n2c(nc3ccccc32)c1C#N
- IC50: 24.7 µM

Compound: Cc1csc2ncnc(NC3CCN(Cc4ccccc4)CC3)c12
- IC50: > 50 µM (inactive)

Compound: CCOC(=O)CSc1nnc(CSc2nc3sc4c(c3c(=O)[nH]2)CCCC4)n1-c1ccccc1
- IC50: > 50 µM (inactive)

Compound: COC(=O)C1=CN(CC2CCCO2)C=C(C(=O)OC)C1c1cccc(O)c1 (configuration not stated)
- IC50: 14.1 µM

Compound: N#C/C(=C\c1ccc(N2CCOCC2)o1)C(=O)NC1CCCCC1
- IC50: 2.76 µM

Compound: COc1cc2c(cc1OC)CN(Cc1cc(=O)oc3cc(C)c(Cl)cc13)CC2
- IC50: > 50 µM (inactive)

Compound: COc1cc(C(=O)Oc2c(CN3CCOCC3)cc(Cl)c3cccnc23)cc(OC)c1OC
- IC50: > 50 µM (inactive)

Compound: O=c1[nH]c(Nc2ccccn2)cc2ccccc12
- IC50: > 50 µM (inactive)

Compound: CN1CCN(C(=O)c2cc3nc(-c4ccccc4)cc(C(F)(F)F)n3n2)CC1
- IC50: > 50 µM (inactive)

Compound: COc1ccc(C(=O)C[n+]2ccc(N)c(C)c2C)cc1
- IC50: > 50 µM (inactive)

Compound: CCOC(=O)N1CCN(c2cc(=O)n(-c3ccccc3C)c(=O)[nH]2)CC1
- IC50: > 50 µM (inactive)

Compound: O=c1[nH]c(Nc2ccccc2Cl)cc2ccccc12
- IC50: > 50 µM (inactive)

Compound: CC(C)(C)C(=O)NC(=S)Nc1ccc(S(=O)(=O)Nc2nccs2)cc1
- IC50: > 50 µM (inactive)

Compound: CCN1/C(=C2\SC(=S)N(Cc3ccccc3)C2=O)Sc2ccccc21
- IC50: > 50 µM (inactive)

Compound: Cc1cc(C(=O)O)ccc1-c1ccc(/C=C2\NC(=O)N(Cc3ccccc3Cl)C2=O)o1
- IC50: 10.7 µM

Compound: CCCc1c2ccccc2nc2ccccc12
- IC50: 8.26 µM

Compound: Cc1nc2nc(CCNS(=O)(=O)c3ccc(Cl)cc3)cn2nc1C
- IC50: 41.2 µM

Compound: OCCNc1c2ccccc2nc2ccccc12
- IC50: 3.94 µM

Compound: COc1ccc(-n2c(C)cc(/C=C3/SC(=S)N(C)C3=O)c2C)cc1
- IC50: > 50 µM (inactive)

Compound: O=C(COC(=O)c1cccnc1Nc1ccccc1F)NCCN1C(=O)CSC1=O
- IC50: > 50 µM (inactive)

Compound: COc1ccc2cc(CCN3C(=O)c4ccccc4C3=O)c(=O)[nH]c2c1
- IC50: > 50 µM (inactive)

Compound: CC1(C)CC(=O)C/C(=N\NC(=O)Cc2ccccc2)C1
- IC50: > 50 µM (inactive)

Compound: CCC(CC)COC(=O)C1=C(C)NC(=O)NC1c1ccc(N(C)C)cc1 (configuration not stated)
- IC50: > 50 µM (inactive)

Compound: O=C(c1cc2ccccc2oc1=O)N1CCN(CCc2ccccc2)CC1
- IC50: 6.7 µM

Compound: CCc1c(C)c2cc(Cl)c(O)c(CN(CC)CC)c2oc1=O
- IC50: 22 µM

Compound: CCN(CC)S(=O)(=O)c1ccc(NC(=O)c2cccc3c2C(=O)N(CCOC)C3)cc1
- IC50: > 50 µM (inactive)

Compound: CCCOc1ccc(C2C(C(=O)OC)=CN(CCOC)C=C2C(=O)OC)cc1
- IC50: 12.3 µM

Compound: CCOC(=O)c1c(NC(=O)Nc2ccc(F)cc2)sc2c1CCN(C)C2
- IC50: > 50 µM (inactive)

Compound: CCCCn1c(NC(=O)c2ccc(Br)o2)c(S(=O)(=O)c2ccccc2)c2nc3ccccc3nc21
- IC50: 4.83 µM

Compound: CN(C)Cc1c(O)ccc2c3c(c(=O)oc12)CCCCC3
- IC50: 24.6 µM

Compound: O=C(c1ccco1)N1CCN(c2cc(=O)n(-c3ccc(Cl)cc3)c(=O)[nH]2)CC1
- IC50: > 50 µM (inactive)

Compound: Cc1c(O)c(CN2CCCCC2)cc2c3c(c(=O)oc12)CCC3
- IC50: 9.04 µM

Compound: CCOC(=O)C1=C(C)NC2=C(C(=O)C(C(=O)OCC)C(c3cccc(OC)c3)C2)C1c1ccccn1 (configuration not stated)
- IC50: 22.2 µM

Compound: CCN(CC)c1nc(-c2ccccc2)cc(C(F)(F)F)c1C#N
- IC50: 7.28 µM

Compound: CC(C)OC(=O)c1c(N)n(CCCN2CCOCC2)c2nc3ccccc3nc12
- IC50: 25.8 µM

Compound: CCCCN(C)C(=O)c1cccc(OC2CCN(CC(C)(C)C)CC2)c1
- IC50: > 50 µM (inactive)

Compound: Cc1cc(Cl)ccc1C(=O)C1CCCN(C(=O)c2n[nH]c3c2CCCC3)C1 (configuration not stated)
- IC50: > 50 µM (inactive)

Compound: Cc1ccc(N2CCN(c3ccc(C)cc3)C2c2ccccn2)cc1
- IC50: > 50 µM (inactive)

Compound: Cc1ccc2nc(N3CCN(Cc4nnnn4Cc4ccccc4)CC3)c(C#N)cc2c1
- IC50: 23 µM

Compound: CCC(=O)Nc1ccc(N/C(N)=N/c2nc(C)cc(C)n2)cc1
- IC50: > 50 µM (inactive)

Compound: CCN1CCc2c(sc(N)c2C#N)C1
- IC50: 16.5 µM

Compound: Cc1nnc(Sc2nc3c(c(=O)n(C)c(=O)n3C)n2Cc2ccccc2Cl)s1
- IC50: > 50 µM (inactive)

Compound: Cc1ccc(Cl)cc1N1C(=O)CC(Sc2ncccn2)C1=O (configuration not stated)
- IC50: > 50 µM (inactive)

Compound: COCCNc1cc(C)nc2cc(-c3ccc(C)cc3)nn12
- IC50: 5.2 µM

Compound: Cc1cccc(C2=NN(c3ccc(Br)cc3)[C@@H](C(=O)N3CCOC3=O)[C@@H]2c2ccc(F)cc2)c1
- IC50: 33.6 µM

Compound: COc1cc(-c2nc3cnccn3c2Nc2ccc(C(C)C)cc2)ccc1O
- IC50: > 50 µM (inactive)

Compound: CCN1CCc2c(sc(NC(=O)C3CCCCC3)c2C(=O)OC)C1
- IC50: > 50 µM (inactive)

Compound: COc1ccc(C(=O)/C=C/Nc2cccc(C)n2)cc1OC
- IC50: 22.8 µM

Compound: CCn1nc(NC(=O)c2ccccn2)c2cc3cccc(C)c3nc21
- IC50: 2.68 µM

Compound: COc1ccc(-n2cnc3cc(NCc4cccs4)ccc32)cc1
- IC50: > 50 µM (inactive)

Compound: N#CC1=C(N)OC2=C(CCc3ccccc32)C1c1ccccc1 (configuration not stated)
- IC50: > 50 µM (inactive)

Compound: Cc1ccc(-c2cc3nc(-c4ccccc4)cc(N4CCC5(CC4)OCCO5)n3n2)cc1
- IC50: 44 µM

Compound: CN1CCN(c2ccc(S(=O)(=O)N3CCCCC3)cc2NC(=O)Cc2ccc(Cl)cc2)CC1
- IC50: > 50 µM (inactive)

Compound: COc1cc2c(cc1OC)CN(Cc1cccs1)CC2
- IC50: > 50 µM (inactive)

Compound: COc1cc(C(=O)N2CCCN(c3nc4cc(C)ccc4cc3C#N)CC2)cc(OC)c1OC
- IC50: 10.9 µM

Compound: COc1ccccc1C(=O)NCCNc1nc2cc(C)cc(C)c2cc1C#N
- IC50: 39.5 µM

Compound: CCN(CC)S(=O)(=O)c1ccc2oc(C(=O)NCCCN3CCOCC3)c(C)c2c1
- IC50: > 50 µM (inactive)

Compound: C=CCN1C(=O)/C(=C2/Sc3ccccc3N2CC)SC1=S
- IC50: > 50 µM (inactive)

Compound: N#Cc1c(N)[nH]c(=S)c(C#N)c1-c1ccccc1
- IC50: > 50 µM (inactive)

Compound: CCOC(=O)c1c(NC(=O)CSc2nnc3c(n2)[nH]c2ccccc23)sc2c1CCN(C)C2
- IC50: > 50 µM (inactive)

Compound: COCCNC(=S)N1CCCN(c2nc3cc(C)ccc3cc2C#N)CC1
- IC50: 29.5 µM

Compound: Cc1ccc(C(=O)NCc2ccco2)cc1S(=O)(=O)N1CCOCC1
- IC50: > 50 µM (inactive)

Compound: O=C(O)c1cccc(Nc2c3ccccc3nc3ccccc23)c1
- IC50: > 50 µM (inactive)

Compound: Cc1oc2cc(O)ccc2c(=O)c1-c1nncn1-c1ccccc1
- IC50: 32.3 µM

Compound: CCOc1cc(NS(=O)(=O)c2ccc(NC(C)=O)cc2)c(OCC)cc1NC(=O)C(C)C
- IC50: > 50 µM (inactive)

Compound: COc1ccc(-n2cnc3cc(NCc4ccco4)ccc32)cc1
- IC50: > 50 µM (inactive)

Compound: CC(=O)c1cccc(OCC(=O)N(C)CC(=O)Nc2ccc(F)cc2)c1
- IC50: > 50 µM (inactive)

Compound: COC(=O)CCC(=O)OC1(C)C(=O)C=C2C=C(C3CC3)N(Cc3ccc(OC)cc3)C=C2C1=O (configuration not stated)
- IC50: 26.7 µM

Compound: O=c1[nH]c(=O)n(-c2cccc3ccccc23)c(O)c1/C=N/N1CCCCCC1
- IC50: > 50 µM (inactive)

Compound: O=C(Nc1ccnc(-c2ccncc2)n1)c1ccc(Cl)cc1
- IC50: > 50 µM (inactive)

Compound: COC(=O)C1=CN(Cc2cccs2)C=C(C(=O)OC)C1c1ccc(OC)cc1OC
- IC50: 6.08 µM

Compound: COC(=O)c1ccc2nc(NC(=O)C(C)(C)C)sc2c1
- IC50: > 50 µM (inactive)

Compound: CCc1ccc(C2C3=C(CC(C)(C)CC3=O)Nc3c2c(=O)[nH]c2nc(C)nn32)cc1 (configuration not stated)
- IC50: 7.01 µM

Compound: N#Cc1cc(NCC2CCCO2)c([N+](=O)[O-])cc1C#N (configuration not stated)
- IC50: > 50 µM (inactive)

Compound: Cc1cccc(-c2nnc(NC(=O)c3ccc(N4C(=O)CCC4=O)cc3)s2)c1
- IC50: > 50 µM (inactive)

Compound: O=C(c1ccc(Br)cc1)c1cc2ccc(O)cc2oc1=O
- IC50: 19.2 µM

Compound: CC(=O)N(c1ccc(Cl)cc1)c1c[nH]c2ccccc12
- IC50: > 50 µM (inactive)

Compound: Cc1cc(C(=O)COC(=O)c2nc3nccc(C)n3n2)c(C)n1CC1CCCO1 (configuration not stated)
- IC50: > 50 µM (inactive)

Compound: COc1ccc(C2NC(C(=O)O)Cc3c2[nH]c2ccccc32)cc1CN1CCN(c2ccc(F)cc2)CC1 (configuration not stated)
- IC50: 7.68 µM

Compound: N=c1c(S(=O)(=O)c2ccc(Br)cc2)cc2c(=O)n3ccccc3nc2n1C1CCCCC1
- IC50: > 50 µM (inactive)

Compound: N#C/C(=C\N1CCN(Cc2ccc3c(c2)OCO3)CC1)c1nc2ccccc2s1
- IC50: > 50 µM (inactive)

Compound: Cc1ccc(S(=O)(=O)N2CCCN(c3nc4cc(C)ccc4cc3C#N)CC2)cc1
- IC50: 29.8 µM

Compound: Cc1c(C)c2cc(Cl)c(O)c(CN(C)C)c2oc1=O
- IC50: 25.2 µM
